From patent publication US20220259202A1, “1-(4-(AMINOMETHYL)BENZYL)-2-BUTYL-2H-PYRAZOLO[3,4-C]QUINOLIN-4-AMINE DERIVATIVES AND RELATED COMPOUNDS AS TOLL-LIKE RECEPTOR (TLR) 7/8 AGONISTS, AS WELL AS ANTIBODY DRUG CONJUGATES THEREOF FOR USE IN CANCER THERAPY AND DIAGNOSIS” (SUTRO BIOPHARMA, INC., priority 2019, published 2022)

Key:
Assay type in all cases: cell-based
[1] = tested on: human PBMCs; assay: Compound-induced immune cell activation (CD86 expression, flow cytometry); conditions: monocytes, B cells, cDCs and pDCs (FIG. 1A-1D); 48 hr
From the text: This example evaluates the ability of Compound 1 to stimulate the activation of different immune cells populations (monocyte, B cell, and DCs) in human PBMCs (Peripheral blood mononuclear cells), cyno PBMCs and mouse splenocytes. Compound A, above, and resiquimod, below, were used as controls in this assay
Peripheral blood mononuclear cells (PBMCs) were isolated from fresh collected blood from two healthy human donors and two cynomolgus monkey donors using Leukosep tube and Nycoprep 1.077 buffer according to the manufacture's recommendation. Mouse splenocytes were isolated from C57/BL6 mouse spleens by macerating and straining over a 70 μm cell strainer. Isolated PBMCs or splenocytes were then frozen done using frozen medium. On the day of the assay, PBMCs or splenocytes were thawed and cultured in PBMC culture medium (RPMI supplemented with 10% heat-inactivated fetal bovine serum from Hyclone, 1% Penicillin/Streptomycin and 2 mmol/L-glutamax). 300k of PBMC or splenocytes in 50 μL of culture medium were seeded in 96-well cell culture plates. 50 μL of the test articles (formulated at 2× of starting concentration, 1:4 serial dilution) were then added into the well. The cell mixtures were co-cultured in the presence of test articles and 10 pg/mL LPS-RS for 48 hr and collected by Accutase. […] Cells were washed, fixed with 2% PFA overnight, and read on the Attune NxT cytometer (Thermo Fisher). […]

[2] = target: T1, mouse TLR2 (Mus musculus, UniProt Q9QUN7); assay: HEK293 SEAP reporter assay, other TLRs (Biological Example 3); conditions: 16 hrs, up to 1 μM
T1 construct: host or cells: HEK293

[3] = target: T2, mouse TLR3 (Mus musculus, UniProt Q99MB1); assay: as above; conditions: 16 hrs, up to 1 μM
T2 construct: host or cells: HEK293
T2 sequence (Q99MB1 26-905): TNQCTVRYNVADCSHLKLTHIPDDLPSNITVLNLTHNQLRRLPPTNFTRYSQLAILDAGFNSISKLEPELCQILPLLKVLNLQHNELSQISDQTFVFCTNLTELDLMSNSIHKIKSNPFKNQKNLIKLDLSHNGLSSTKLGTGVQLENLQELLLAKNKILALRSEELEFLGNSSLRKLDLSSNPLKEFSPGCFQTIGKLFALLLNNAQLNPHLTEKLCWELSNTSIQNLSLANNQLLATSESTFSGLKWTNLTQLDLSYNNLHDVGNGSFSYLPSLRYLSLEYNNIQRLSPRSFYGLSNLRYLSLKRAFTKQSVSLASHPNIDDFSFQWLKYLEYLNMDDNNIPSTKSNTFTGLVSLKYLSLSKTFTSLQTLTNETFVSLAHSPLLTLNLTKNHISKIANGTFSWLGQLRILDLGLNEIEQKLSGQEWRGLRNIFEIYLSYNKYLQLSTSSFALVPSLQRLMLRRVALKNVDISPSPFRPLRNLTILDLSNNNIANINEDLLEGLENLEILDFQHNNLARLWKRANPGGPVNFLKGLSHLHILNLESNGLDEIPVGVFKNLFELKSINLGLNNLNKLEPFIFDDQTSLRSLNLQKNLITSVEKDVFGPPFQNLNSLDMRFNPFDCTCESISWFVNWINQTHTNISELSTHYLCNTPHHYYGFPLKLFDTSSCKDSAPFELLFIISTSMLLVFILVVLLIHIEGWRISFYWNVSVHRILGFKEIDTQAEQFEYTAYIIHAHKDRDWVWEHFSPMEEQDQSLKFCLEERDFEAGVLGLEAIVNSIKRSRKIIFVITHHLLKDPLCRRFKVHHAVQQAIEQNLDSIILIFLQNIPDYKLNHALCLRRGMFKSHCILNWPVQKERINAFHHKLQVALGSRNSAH

T1 sequence (Q9QUN7 25-784): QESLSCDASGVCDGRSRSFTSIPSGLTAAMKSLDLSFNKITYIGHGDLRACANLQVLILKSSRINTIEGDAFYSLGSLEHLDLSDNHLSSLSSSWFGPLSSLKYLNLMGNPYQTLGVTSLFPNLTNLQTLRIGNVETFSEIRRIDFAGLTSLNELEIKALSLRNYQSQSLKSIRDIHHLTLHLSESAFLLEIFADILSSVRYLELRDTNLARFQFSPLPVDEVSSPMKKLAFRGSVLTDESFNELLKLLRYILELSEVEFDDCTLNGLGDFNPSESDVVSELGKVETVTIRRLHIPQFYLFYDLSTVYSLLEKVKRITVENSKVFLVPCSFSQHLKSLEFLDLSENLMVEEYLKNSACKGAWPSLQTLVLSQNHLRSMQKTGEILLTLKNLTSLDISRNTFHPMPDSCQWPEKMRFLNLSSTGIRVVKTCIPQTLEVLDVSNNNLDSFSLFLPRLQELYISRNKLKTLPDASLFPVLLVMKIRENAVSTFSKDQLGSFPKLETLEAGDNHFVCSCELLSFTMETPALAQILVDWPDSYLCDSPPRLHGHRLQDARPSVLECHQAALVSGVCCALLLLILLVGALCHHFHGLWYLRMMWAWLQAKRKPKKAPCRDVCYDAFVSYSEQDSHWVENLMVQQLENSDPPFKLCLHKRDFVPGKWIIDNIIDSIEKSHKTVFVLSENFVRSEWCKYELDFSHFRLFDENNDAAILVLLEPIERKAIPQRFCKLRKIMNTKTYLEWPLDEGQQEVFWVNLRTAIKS

Row | EC50 [2] | EC50 [3] | SMILES | activation of immune cells in human PBMCs [1]
1 | > 1000 nM | > 1000 nM | CCCCn1nc2c(N)nc3ccccc3c2c1Cc1ccc(CN)cc1 [Compound 1, 1-(4-(aminomethyl)benzyl)-2-butyl-2H-pyrazolo[3,4-c]quinolin-4-amine] | very potent in activating
2 | > 1000 nM | > 1000 nM | CCCCc1nc2c(N)nc3ccccc3c2n1Cc1ccc(CN)cc1 [Compound A, reference compound] | 
